# Like-named read-outs stand apart in the source and are kept apart here.
# How the values were obtained:
# natalizumab [1] = assay: Binding of purified phage clones to natalizumab-coated wells; settings: individually amplified and purified phage clones
# Method: Mimetope peptides were selected from phage display libraries, some of which contain cysteines flanking the peptide mimetope sequence to increase stability of the peptide through disulfide bond formation. After three rounds of selection with multiple phage display libraries, individual phage plaques were isolated and sequenced.
# All of these unique phage clones were individually amplified and purified, and their ability to specifically bind natalizumab-coated wells was assessed. […] Selected peptides derived from validated phage clones were chemically synthesized with an N-terminal acetyl modification (in some cases), C-terminal biotin modification via a terminal lysine (all peptides), and a disulfide bridge between cysteines 2 and 10 or cysteines 8 and 16 by a contract peptide manufacturer, as shown in Table 2.
# natalizumab [2] = settings: human serum spiked with natalizumab, rituximab, atezolizumab, pembrolizumab, eculizumab
# Method: Synthesized peptides were validated for specificity by using them as ELISA capture reagents on neutravidin-coated plates. Briefly, biotinylated peptides were coated on the wells at 100 ug/mL concentration in either tris buffered saline buffer (TBS) or water. […] Antibody that was captured by the peptides was subsequently detected using a goat anti-human IgG-Fc conjugated to horseradish peroxidase (HRP) combined with a colorimetric substrate. […] The percent of recovery was calculated as follow: calibrated concentration/nominal concentration×100.
# natalizumab [3] = settings: 1,000 or 10,000 fold molar excess of peptide; Jeko-1 cells
# Excerpt: (§1) Jeko-1 cells, expressing CD49d, were used as a model.
# as §1
# natalizumab [4] = assay: Competition ELISA between natalizumab-specific VERITOPE and anti-idiotype; assay type: binding; settings: capture reagent versus competitive reagent
# Excerpt: In FIG. 11A natalizumab-specific VERITOPE™ is the capture reagent and anti-idiotype is the competitive reagent. In FIG. 11B, anti-idiotype is the capture reagent and natalizumab-specific VERITOPE™ is the competitive reagent.
# FIGS. 10A and B illustrates a comparison of VERITOPE™ (FIG. 10A) and anti-idiotype (FIG. 10B) ELISA binding.
# natalizumab [5] = assay: Anti-idiotype ELISA versus VERITOPE ELISA on heat-inactivated natalizumab; assay type: binding; settings: natalizumab heat-inactivated at 60° C.
# [6] = tested on: Jeko-1 cells, expressing CD49d; assay: Flow cytometry: binding of heat-inactivated natalizumab to Jeko-1 cells; assay type: cell-based; settings: 60° C. for various periods of time; bivalent and arm-exchanged (bispecific) natalizumab
# integrin = molecular target: T1, integrin (Homo sapiens, UniProt P13612); settings: at the end of 4 weeks, cited from earlier work
# T1 construct: host or cells: cells of treated patients
# Fc gamma receptors = settings: like other IgG4 antibodies; cited from earlier work
# complement = settings: in vitro; cited from earlier work
substance,measurement,setting,value
ACPKNPNKFCGGG [SEQ ID NO: 4],specific binding to natalizumab-coated wells,natalizumab [1],specific binding to natalizumab
ACPKNPSKFCGGG{Lys(Biotin)} with Cys2-Cys10 bridge [NTZ-07-Bio],selectivity for natalizumab over other therapeutic monoclonal antibodies,natalizumab [2],selectively captures natalizumab in presence of other circulating human IgG
ACPMNESKFCGGG [SEQ ID NO: 1],specific binding to natalizumab-coated wells,natalizumab [1],specific binding to natalizumab
ACPSNPSKFCGGG [SEQ ID NO: 2],specific binding to natalizumab-coated wells,natalizumab [1],specific binding to natalizumab
Ac-ACPMNESKFCGGG{Lys(Biotin)} with Cys2-Cys10 bridge [NTZ-01-Bio],inhibition of natalizumab binding to its cell surface target,natalizumab [3],can inhibit binding of natalizumab to its cell surface target
same,region of natalizumab bound,natalizumab [4],"bind to the same region of natalizumab, most likely the antigen binding site"
same,ability of capture reagent to distinguish active and inactive drug,natalizumab [5],selectively distinguishes & quantifies active drug
IYAAYPPCPQNLSKFCRHSSSPGGGG [SEQ ID NO: 16],specific binding to natalizumab-coated wells,natalizumab [1],specific binding to natalizumab
QTLNHSWLHTFIGGG [SEQ ID NO: 13],specific binding to natalizumab-coated wells,natalizumab [1],specific binding to natalizumab
natalizumab,effect of heat-inactivation on binding to cellular target,[6],alters natalizumab binding to its cellular target
same,integrin saturation by natalizumab,"integrin; Hyams et al. 2007, crohn disease in adolescents",less than 40%
same,integrin saturation by natalizumab,"integrin; Miller et al. 2003, relapsing multiple sclerosis",80%
same,binding to Fc gamma receptors,Fc gamma receptors,reduced binding to Fc gamma receptors
same,ability to fix complement,complement,lack of ability to fix complement
